In the test the test system is T47D (PIK3CA H1047R) cells. Put plainly: pS473 AKT assay with 2.5% FBS, T47D cells. The format is cell-based. The conditions noted are these: Homo sapiens, pSer473 AKT, DMEM with 2.5% FBS, 2 h treatment, read-out: T47D_IC50. The method, boiled down:
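In-cell chemiluminescent ELISA of AKT Ser473 phosphorylation, using anti-pSer473 primary and HRP secondary antibodies on fixed cells. T47D (PIK3CA H1047R) cells had 2 h of compound treatment in DMEM containing 2.5% FBS; IC50 derived from dose-response.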

The structures appear in SMILES notation.

Among the data in US20250270213A1, “PI3Ka INHIBITORS” (Synnovation Therapeutics, Inc., priority 2022, published 2025) are IC50 values, retold here.

Turning to `CCn1c(=O)c2cc(C)cc(C(C)Nc3ccc(Cl)nc3-c3ncn(C)n3)c2c2cn(C3CCN(CCO)CC3)nc21` (stereo not drawn) [Example 203, 9-(1-((6-Chloro-2-(1-methyl-1H-1,2,4-triazol-3-yl)pyridin-3-yl)amino)ethyl)-4-ethyl-2-(1-(2-hydroxyethyl)piperidin-4-yl)-7-methyl-2,4-dihydro-5H-pyrazolo[3,4-c]isoquinolin-5-one], the IC50 was less than 1000 nM.

With `CCn1c(=O)c2cc(C)cc(C(C)Nc3ccc(Cl)nc3-c3ncn(C)n3)c2c2cn(C3CCN(CCC#N)CC3)nc21` (stereo not drawn) [Example 204, 3-(4-(9-(1-((6-Chloro-2-(1-methyl-1H-1,2,4-triazol-3-yl)pyridin-3-yl)amino)ethyl)-4-ethyl-7-methyl-5-oxo-4,5-dihydro-2H-pyrazolo[3,4-c]isoquinolin-2-yl)piperidin-1-yl)propanenitrile], the IC50 is less than 1000 nM.

Regarding `CCn1c(=O)c2cc(C)cc(C(C)Nc3ccc(Cl)nc3-c3ncn(C)n3)c2c2cn(C3CN(C)C3)nc21` (stereo not drawn) [Example 205, 9-(1-((6-Chloro-2-(1-methyl-1H-1,2,4-triazol-3-yl)pyridin-3-yl)amino)ethyl)-4-ethyl-7-methyl-2-(1-methylazetidin-3-yl)-2,4-dihydro-5H-pyrazolo[3,4-c]isoquinolin-5-one], the IC50 is less than 1000 nM.

As for `Cc1cc(C(C)Nc2ccc(Cl)nc2-c2cnn(C)c2)c2c(c1)c(=O)n(C)c1nn(C3CCN(C)CC3)cc21` (stereo not drawn) [Example 206, 9-(1-((6-Chloro-2-(1-methyl-1H-pyrazol-4-yl)pyridin-3-yl)amino)ethyl)-4,7-dimethyl-2-(1-methylpiperidin-4-yl)-2,4-dihydro-5H-pyrazolo[3,4-c]isoquinolin-5-one], the IC50 was less than 1000 nM.

Consider `Cc1cc(C(C)Nc2ccc(Cl)nc2-c2cnn(C)c2)c2c(c1)c(=O)n(C)c1nn(C3CCN(C(C)C)CC3)cc21` (stereo not drawn) [Example 207, 9-(1-((6-chloro-2-(1-methyl-1H-pyrazol-4-yl)pyridin-3-yl)amino)ethyl)-2-(1-isopropylpiperidin-4-yl)-4,7-dimethyl-2,4-dihydro-5H-pyrazolo[3,4-c]isoquinolin-5-one], for which the IC50 is less than 1000 nM.

`Cc1cc(C(C)Nc2ccc(Cl)nc2-c2ncn(C)n2)c2c(c1)c(=O)n(C)c1nn(C3CCN(C)CC3)cc21` (stereo not drawn) [Example 208, 9-(1-((6-chloro-2-(1-methyl-1H-1,2,4-triazol-3-yl)pyridin-3-yl)amino)ethyl)-4,7-dimethyl-2-(1-methylpiperidin-4-yl)-2,4-dihydro-5H-pyrazolo[3,4-c]isoquinolin-5-one]: the IC50 is less than 1000 nM.

Take `CC(=O)N1CCC(n2cc3c4c(C(C)Nc5ccc(Cl)nc5-c5cnn(C)c5)cc(C)cc4c(=O)n(C)c3n2)CC1` (stereo not drawn) [Example 209, 2-(1-Acetylpiperidin-4-yl)-9-(1-((6-chloro-2-(1-methyl-1H-pyrazol-4-yl)pyridin-3-yl)amino)ethyl)-4,7-dimethyl-2,4-dihydro-5H-pyrazolo[3,4-c]isoquinolin-5-one]: the IC50 is less than 1000 nM.

Take `CCOC(=O)N1CCC(n2cc3c4c(C(C)Nc5ccc(Cl)nc5-c5cnn(C)c5)cc(C)cc4c(=O)n(C)c3n2)CC1` (stereo not drawn) [Example 210, ethyl 4-(9-(1-((6-chloro-2-(1-methyl-1H-pyrazol-4-yl)pyridin-3-yl)amino)ethyl)-4,7-dimethyl-5-oxo-4,5-dihydro-2H-pyrazolo[3,4-c]isoquinolin-2-yl)piperidine-1-carboxylate]: the IC50 is less than 1000 nM.

On to `Cc1cc(C(C)Nc2ccc(Cl)nc2-c2cnn(C)c2)c2c(c1)c(=O)n(C)c1nn(C3CCN(C(=O)N(C)C)CC3)cc21` (stereo not drawn) [Example 211, 4-(9-(1-((6-chloro-2-(1-methyl-1H-pyrazol-4-yl)pyridin-3-yl)amino)ethyl)-4,7-dimethyl-5-oxo-4,5-dihydro-2H-pyrazolo[3,4-c]isoquinolin-2-yl)-N,N-dimethylpiperidine-1-carboxamide], for which the IC50 is less than 1000 nM.

On to `Cc1cc(C(C)Nc2ccc(Cl)nc2-c2cnn(C)c2)c2c(c1)c(=O)n(C)c1nn(C3CCN(CC(F)F)CC3)cc21` (stereo not drawn) [Example 212, 9-(1-((6-Chloro-2-(1-methyl-1H-pyrazol-4-yl)pyridin-3-yl)amino)ethyl)-2-(1-(2,2-difluoroethyl)piperidin-4-yl)-4,7-dimethyl-2,4-dihydro-5H-pyrazolo[3,4-c]isoquinolin-5-one], for which the IC50 is less than 1000 nM.

With `[2H]C([2H])([2H])n1c(=O)c2cc(C)cc(C(C)Nc3ccc(Cl)nc3-c3noc(=O)[nH]3)c2c2cnn([C@H]3CCOC3)c21` (stereo partly drawn) [Example 213, 3-[6-Chloro-3-[1-[7-methyl-5-oxo-3-[(3S)-tetrahydrofuran-3-yl]-4-(trideuteriomethyl)pyrazolo[3,4-c]isoquinolin-9-yl]ethylamino]-2-pyridyl]-4H-1,2,4-oxadiazol-5-one], the IC50 is less than 1000 nM.

For the compound `[2H]C([2H])([2H])n1c(=O)c2cc(C)cc(C(C)Nc3ccc(Cl)nc3-c3cnn(C)c3)c2c2cnn([C@H]3CCOC3)c21` (stereo partly drawn) [Example 214, 9-(1-((6-chloro-2-(1-methyl-1H-pyrazol-4-yl)pyridin-3-yl)amino)ethyl)-7-methyl-4-(methyl-d3)-3-((S)-tetrahydrofuran-3-yl)-3,4-dihydro-5H-pyrazolo[3,4-c]isoquinolin-5-one], the IC50 is less than 1000 nM.

As for `CCn1c(=O)c2cc(C)cc(C(C)Nc3ccc(Cl)nc3-c3noc(=O)[nH]3)c2c2cnn([C@H]3CCOC3)c21` (stereo partly drawn) [Example 215, 3-(6-chloro-3-((1-(4-ethyl-7-methyl-5-oxo-3-((S)-tetrahydrofuran-3-yl)-4,5-dihydro-3H-pyrazolo[3,4-c]isoquinolin-9-yl)ethyl)amino)pyridin-2-yl)-1,2,4-oxadiazol-5(4H)-one], the IC50 was less than 1000 nM.

As for `CCn1c(=O)c2cc(C)cc(C(C)Nc3ccc(Cl)nc3-c3ncn(C)n3)c2c2cnn([C@H]3CCOC3)c21` (stereo partly drawn) [Example 216, 9-(1-((6-chloro-2-(1-methyl-1H-1,2,4-triazol-3-yl)pyridin-3-yl)amino)ethyl)-4-ethyl-7-methyl-3-((S)-tetrahydrofuran-3-yl)-3,4-dihydro-5H-pyrazolo[3,4-c]isoquinolin-5-one], the IC50 was less than 1000 nM.

For the compound `CCn1c(=O)c2cc(C)cc(C(C)Nc3ccc(Cl)nc3-c3cnn(C4CCN(C)CC4)c3)c2c2cnn([C@H]3CCOC3)c21` (stereo partly drawn) [Example 217, 9-(1-((6-chloro-2-(1-(1-methylpiperidin-4-yl)-1H-pyrazol-4-yl)pyridin-3-yl)amino)ethyl)-4-ethyl-7-methyl-3-((S)-tetrahydrofuran-3-yl)-3,4-dihydro-5H-pyrazolo[3,4-c]isoquinolin-5-one], the IC50 was less than 1000 nM.

Consider `CCn1c(=O)c2cc(C)cc(C(C)Nc3ccc(Cl)nc3-c3ccnc(C)c3)c2c2cnn([C@H]3CCOC3)c21` (stereo partly drawn) [Example 218, 9-(1-((6-chloro-2′-methyl-[2,4′-bipyridin]-3-yl)amino)ethyl)-4-ethyl-7-methyl-3-((S)-tetrahydrofuran-3-yl)-3,4-dihydro-5H-pyrazolo[3,4-c]isoquinolin-5-one], for which the IC50 was less than 1000 nM.

As to `CCn1c(=O)c2cc(C)cc(C(C)Nc3ccc(Cl)nc3-c3ccc(=O)n(C)c3)c2c2cnn([C@H]3CCOC3)c21` (stereo partly drawn) [Example 219, 9-(1-((6-chloro-1′-methyl-6′-oxo-1′,6′-dihydro-[2,3′-bipyridin]-3-yl)amino)ethyl)-4-ethyl-7-methyl-3-((S)-tetrahydrofuran-3-yl)-3,4-dihydro-5H-pyrazolo[3,4-c]isoquinolin-5-one], the IC50 is less than 1000 nM.

As to `CCn1c(=O)c2cc(C)cc(C(C)Nc3ccc(Cl)nc3-c3ccc(C(=O)NC)nc3)c2c2cnn([C@H]3CCOC3)c21` (stereo partly drawn) [Example 220, 6-chloro-3-((1-(4-ethyl-7-methyl-5-oxo-3-((S)-tetrahydrofuran-3-yl)-4,5-dihydro-3H-pyrazolo[3,4-c]isoquinolin-9-yl)ethyl)amino)-N-methyl-[2,3′-bipyridine]-6′-carboxamide], the IC50 was less than 1000 nM.

`CCn1ncc2c3c(C(C)Nc4ccc(Cl)nc4-c4ncn(C)n4)cc(C)cc3c(=O)n(C3CC3)c21` (stereo not drawn) [Example 221, 9-(1-((6-Chloro-2-(1-methyl-1H-1,2,4-triazol-3-yl)pyridin-3-yl)amino)ethyl)-4-cyclopropyl-3-ethyl-7-methyl-3,4-dihydro-5H-pyrazolo[3,4-c]isoquinolin-5-one]: the IC50 is less than 1000 nM.

As for `CCn1ncc2c3c(C(C)Nc4ccc(Cl)nc4-c4ccc(=O)n(C)c4)cc(C)cc3c(=O)n(C3CC3)c21` (stereo not drawn) [Example 222, 9-[1-[[6-chloro-2-(1-methyl-6-oxo-3-pyridyl)-3-pyridyl]amino]ethyl]-4-cyclopropyl-3-ethyl-7-methyl-pyrazolo[3,4-c]isoquinolin-5-one], the IC50 is less than 1000 nM.

`CCn1ncc2c3c(C(C)Nc4ccc(Cl)nc4-c4ncn(C)n4)cc(C)cc3c(=O)n(C3CCOC3)c21` (stereo not drawn) [Example 223, 9-[1-[[6-Chloro-2-(1-methyl-1,2,4-triazol-3-yl)-3-pyridyl]amino]ethyl]-3-ethyl-7-methyl-4-tetrahydrofuran-3-yl-pyrazolo[3,4-c]isoquinolin-5-one]: the IC50 is less than 1000 nM.

Regarding `CCn1ncc2c3c(C(C)Nc4ccc(Cl)nc4-c4ncn(C)n4)cc(C)cc3c(=O)n(CCO)c21` (stereo not drawn) [Example 224, 9-[1-[[6-Chloro-2-(1-methyl-1,2,4-triazol-3-yl)-3-pyridyl]amino]ethyl]-3-ethyl-4-(2-hydroxyethyl)-7-methyl-pyrazolo[3,4-c]isoquinolin-5-one], the IC50 was less than 1000 nM.

Regarding `CCn1ncc2c3c(CNc4ccc(Cl)nc4-c4ccc(C(=O)NC)c(F)c4)cc(C)cc3c(=O)n(C)c21` [Example 225, 4-(6-Chloro-3-(((3-ethyl-4,7-dimethyl-5-oxo-4,5-dihydro-3H-pyrazolo[3,4-c]isoquinolin-9-yl)methyl)amino)pyridin-2-yl)-2-fluoro-N-methylbenzamide], the IC50 is less than 1000 nM.

`CCn1ncc2c3c(C(C)Oc4ccc(Cl)nc4-c4c[nH]nc4C)cc(C)cc3c(=O)n(C)c21` (stereo not drawn) [Example 226, 9-(1-((6-Chloro-2-(3-methyl-1H-pyrazol-4-yl)pyridin-3-yl)oxy)ethyl)-3-ethyl-4,7-dimethyl-3,4-dihydro-5H-pyrazolo[3,4-c]isoquinolin-5-one]: the IC50 was less than 1000 nM.
